One assay has as its system estrogen levels. The conditions noted are these: while raising testosterone levels; cited from earlier work.
The next assay relates to Mouse thoracic aortas. The assay can be described thus: Acetylcholine relaxation of mouse thoracic aortic rings on an isometric wire myograph after exposure to MIG. The conditions noted are these: mouse thoracic aortic sections incubated with different concentrations of recombinant mouse MIG, pre-contracted with U46619; FIG. 6. On the procedure:
Mouse thoracic aortas were carefully dissected, and vessels were cut into small rings and mounted on an isometric wire myograph chambers (Danish Myo Technology) and subjected to a normalization protocol. Following normalization, the vessels were incubated with either PBS or different concentrations of recombinant mouse MIG (R&D systems, catalog number 492-MM). A concentration-dependent contraction curve was created by accumulative application of the prostaglandin agonist U46619. Subsequently, concentration-dependent relaxation curves of Acetylcholine were conducted on these vessels and percent relaxation calculated for each dose.

Data on two molecules can be found in patent publication US11359011B2, “Treatment and prevention of cardiovascular disease” (Edifice Health, Inc., priority 2019, dated 2022).

Consider `N#Cc1ccc(C(c2ccc(C#N)cc2)n2cncn2)cc1` [Letrozole], for which, in the assay on estrogen levels, the “reduction of estrogen levels” value is reported as 98%.

B1: MIG: recombinant mouse MIG (R&D systems, catalog number 492-MM); monokine induced by gamma interferon, CXC chemokine (protein, UniProt P18340 22-126, looked up)
C-X-C motif chemokine 9: TLVIRNARCSCISTSRGTIHYKSLKDLKQFAPSPNCNKTEIIATLKNGDQTCLDPDSANVKKLMKEWEKKISQKKKQKRGKKHQKNMKNRKPKTPQSRRRSRKTT
As for B1, in the assay with Mouse thoracic aortas, the “effect on vasorelaxation (percent relaxation to Acetylcholine)” value is given as “impaired vascular reactivity with increasing concentrations of MIG”.
